Legend:
PD-L1 = target: T1, PD-L1 (Homo sapiens, UniProt Q9NZQ7); experiment: Competitive cell-binding experiment against [^68Ga]BMSH; conditions: A549-hPDL1 cells, 60 min
T1 construct: expressed in transfected cells; host or cells: A549 cells stably transduced with hPD-L1 by lentivirus (A549-hPDL1)

[1] = system: A549-hPDL1 and A549 tumors; experiment: Micro-PET imaging, A549-hPDL1 versus A549 tumors; format: in vivo, BALB/c nude mice; conditions: 60 min post-injection
Description: For biodistribution and micro-PET imaging studies of [^68Ga]BMSH and [^18F]FDG, male BALB/c nude mice were implanted subcutaneously with 1–5 × 10^6 A549-hPDL1 cells and A549 cells behind right armpit. Mice were imaged or used in biodistribution studies when the tumor xenografts reached 5–10 mm in diameter. Dynamic micro-PET imaging studies were conducted in tumor-bearing nude mice (A549-hPDL1 and A549, n = 3 in each group) using the Madiclab PSA146 PET/CT/FMT instrument (Linyi, China). The images were reconstructed using a three-dimensional ordered-subset expectation maximum (OSEM) algorithm and were converted to the percentage of injected dose per gram of tissue (%ID/g) images. Tumor-bearing mice were intravenously injected with [^68Ga]BMSH (7.4 MBq/mouse) and [^18F]FDG (5.55 MBq/mouse), respectively. For the blocking experiment, the A549-hPDL1 tumor-bearing mice were co-injected with NOTA-BMSH (100 µg/mouse) and [^68Ga]BMSH. For data analysis, the regions of interest (ROIs) were manually drawn over the tumor and major organs on decay-corrected whole-body coronal images using PMOD software (version 4.3, PMOD Technologies Ltd., Zurich, Switzerland).

T1 sequence (Q9NZQ7 19-290): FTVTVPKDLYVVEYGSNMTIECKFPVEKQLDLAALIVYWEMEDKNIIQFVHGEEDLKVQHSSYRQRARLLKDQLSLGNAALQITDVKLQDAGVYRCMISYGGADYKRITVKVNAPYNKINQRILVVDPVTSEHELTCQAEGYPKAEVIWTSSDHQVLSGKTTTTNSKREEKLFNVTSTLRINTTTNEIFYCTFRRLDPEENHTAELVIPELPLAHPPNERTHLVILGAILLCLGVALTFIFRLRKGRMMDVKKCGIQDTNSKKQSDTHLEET

| Compound | IC50 (PD-L1) [nM] | A549-hPDL1 tumor/A549 tumor uptake ratio [1] |
| --- | --- | --- |
| CC(=O)NC1C(NC(=O)[C@H](CCC(=O)N[C@@H](CCC(=O)O)C(=O)N[C@@H](CC(=O)O)C(=O)NCCOCCOCC(=O)NCCNC(=O)[C@@H](CO)CNc2cc(C)c(OCc3cccc(-c4ccc5c(c4)OCCO5)c3C)cc2OCc2cccc(C#N)c2)NC(=O)COCCOCCNC(=O)CN2CCN(CC(=O)O)CCN(CC(=O)O)CC2)OC(CO)C(O)C1O (some centres unmarked) [NOTA-BMSH] | 449 | – |
| [^18F]FDG | – | 1.08 |

From publication PMC10610256, “Development and Preclinical Evaluation of [^68Ga]BMSH as a New Potent Positron Emission Tomography Tracer for Imaging Programmed Death-Ligand 1 Expression” (Pharmaceuticals, 2023)
